Assay [1] concerns rat medial meniscal tear (MMT) model of osteoarthritis. The experiment in a line: Rat MMT model of osteoarthritis, histology. Type of assay: in vivo. The source says: In the rat medial mensical tear (MMT) model of osteoarthritis, transection of the medial meniscus results in joint deterioration and reduced weight bearing that mimics human osteoarthritis. A unilateral medial meniscal tear in 300-400 gram rats results in rapidly progressive cartilage degenerative changes characterized by chondrocyte and proteoglycan loss, fibrillation, osteophyte formation and chondrocyte cloning. Such changes are typically observed to be substantial by day 21 following the meniscal surgery. The extent of joint deterioration, as determined primarily by the extent of cartilage lesions formed, can be measured using a semi-quantitative histological scoring system.
To test the utility of trehalose as a vehicle for intra-articularly injected compounds, a solution of trehalose was formulated as a 5% solution in 3 mM glycine-HCl buffer, having a pH of approximately 3. The solution was tested in the rat MMT model. Transection of the medial collateral ligament just below attachment to the meniscus was performed on 15 male Lewis rats. The meniscus was cut at its narrowest point (away from the ossicles) taking care not to damage the tibial surface.
Beginning three days after MMT surgery, intra-articular injections of the trehalose solution were given weekly for five weeks, followed by euthanasia at week six.
Such measurements are taken using an ocular micrometer from stained histological cross sections of the medial compartment of the joint.
These measurements are taken using an ocular micrometer from stained histological cross sections of the medial compartment of the joint.
Cartilage preservation also correlated to the extent of collagen degeneration. […] The extent of collagen degeneration is defined as follows: […]
Severe damage (total or near total loss of collagen to tidemark, >90% thickness)
Marked damage (extends through 61-90% of the cartilage thickness)
Moderate damage (extends thru 31-60% of the cartilage thickness)
Mild damage (extends through 11-30% of the cartilage thickness)
Minimal damage (very superficial, affecting upper 10% only)
Cartilage degeneration scores were determined histologically by estimating the area of non-viable (significant chondrocyte and proteoglycan loss but collagen retention) and completely absent cartilage matrix, then estimating the percentage of that area compared to the area of the extrapolated original cartilage cross sectional area. A score of 1-5 is assigned, with a score of 1 indicating cartilage degeneration of 10% or less, and a score of 5 indicating complete cartilage degeneration. In FIG. 8, Zone 1 refers to the one third of the medial tibial plateau closest to the transected meniscus. […]

Assay [2] has as its system rabbit anterior cruciate ligament transection (ACLT) model of OA. The experiment in a line: Rabbit ACLT model of osteoarthritis, modified Mankin scale. The following applies: 5% solution in 3 mM glycine-HCl buffer pH approx. 3, intra-articular weekly for seven weeks, euthanasia at 8 weeks; vs untreated animals (FIG. 9). It counts as in vivo. How it is done:
The trehalose formulation (a 5% trehalose solution in 3 mM glycine-HCl buffer having a pH of approximately 3) described above was also tested in the rabbit anterior cruciate ligament transection (ACLT) model of OA. The ACLT surgery destabilized the rabbit knee to a greater extent than meniscal transection, resulting in not only substantial cartilage deterioration but also osteophyte formation. Studies investigating the development and regulation of osteophyte formation in the rabbit model of OA have detected plate-like formations as early as 4 weeks post-ACLT, and osteophyte growth in all compartments of the knee by 12 weeks post-ACLT.
Rabbits were anesthetized. The patellar fat pad was retracted, and the ACL was isolated. The anterior cruciate ligament was severed with a surgical blade. The fibrous capsule and subcutaneous tissue were closed prior to the skin being sutured. Beginning one week after surgery, intra-articular injections were given weekly for seven weeks, followed by euthanasia at 8 weeks. Cartilage degradation was determined histologically using a modified Mankin scale. Higher scores indicated more extensive cartilage degradation, with a maximum score of 18.
[…] decreased cartilage degeneration as a result of the intra-articular trehalose injections.

Molecules are shown by their SMILES.

On to `OC[C@H]1O[C@H](O[C@H]2O[C@H](CO)[C@@H](O)[C@H](O)[C@H]2O)[C@H](O)[C@@H](O)[C@@H]1O` [trehalose, α-D-glucopyranosyl α-D-glucopyranoside], for which the “width of significant cartilage lesions (chondrocyte and proteoglycan loss through 50% or more of cartilage thickness)” value in assay [1] (5% solution in 3 mM glycine-HCl buffer pH approx. 3, intra-articular weekly for five weeks, euthanasia at week six, vs no treatment (FIG. 5)) is reported as “significant reduction”. In addition, the “lesion Depth Ratio” value in assay [1] (5% solution, intra-articular weekly for five weeks, vs no treatment (FIG. 6)) was “significant improvement”. Also, the “width of cartilage lesions with marked or severe collagen depletion” value in assay [1] (5% solution, intra-articular weekly for five weeks, vs no treatment (FIG. 7)) is listed as “significantly reduced”. Besides, in assay [1] (all three zones, 5% solution, intra-articular weekly for five weeks (FIG. 8)), the “cartilage degeneration score of medial tibial plateau” value was “statistically improved”. Also, the “modified Mankin score” value in assay [2] was “significant improvement”.

Values taken from US8623839B2, “Compositions and methods for stabilized polysaccharide formulations” (DePuy Mitek, LLC, priority 2011, dated 2014).
